Data from paper PMC3222274 (Molecular and biochemical parasitology, 2011).

Columns and labels:
Dv-ACE-1 = Dv-ACE-1 (Dictyocaulus viviparus, UniProt Q0H0R6); test: Ellman assay, transfected COS-7 extract, logistic fit; format: biochemical
CCC(=O)SCC[N+](C)(C)C = test: Ellman assay, transfected COS-7 extract, fit with Km, Kss and b; format: biochemical, Dictyocaulus viviparus; details: pH 7, 0.3 mM DTNB, 167 mM NaCl, substrate-inhibition model
CC(=O)SCC[N+](C)(C)C = test: as above; format: biochemical, Dictyocaulus viviparus; details: pH 7, 0.3 mM DTNB, 167 mM NaCl, substrate-inhibition model
CCCC(=O)SCC[N+](C)(C)C = test: as above; format: biochemical, Dictyocaulus viviparus; details: pH 7, 0.3 mM DTNB, 167 mM NaCl, substrate-activation model

Molecule	IC50 (Dv-ACE-1) [µM]	Km (CCC(=O)SCC[N+](C)(C)C)	Km (CC(=O)SCC[N+](C)(C)C)	Km (CCCC(=O)SCC[N+](C)(C)C)
C=CC[N+](C)(C)c1ccc(CCC(=O)CCc2ccc([N+](C)(C)CC=C)cc2)cc1 [BW284c51]	0.303			
CCN(CC)C(C)CN1c2ccccc2Sc2ccccc21 (stereo not shown) [ethopropazine]	137			
CC(C)NP(=O)(NC(C)C)OP(=O)(NC(C)C)NC(C)C [iso-OMPA]	> 3000			
CNC(=O)Oc1ccc2c(c1)[C@]1(C)CCN(C)[C@@H]1N2C [physostigmine]	0.126			
Dv-ACE-1 (Dictyocaulus viviparus)		1.59 ± 0.03 × 10^−3 M	7.51 ± 0.21 × 10^−4 M	4.32 ± 1.61 × 10^−5 M
